Experimental data as given in article PMC4865820, “Branched Peptide, B2088, Disrupts the Supramolecular Organization of Lipopolysaccharides and Sensitizes the Gram-negative Bacteria” (Scientific Reports, 2016).
Positions of bridges follow the written chain, without caps; N, C: chain ends. Residues, ends and D or L forms follow the SMILES beside them. Chains are numbered I, II in the order given.

Key:
[1] = tested on: LPS (E. coli serotype 055:B5); experiment: BODIPY TR cadaverine (BC) displacement assay with LPS; assay type: binding; settings: no unit in table; ED50 values in μM; 5 mM HEPES pH 7.4; duplicates; read-out: BC50 (LPS binding)
From the text: To investigate the interaction of B2088 with LPS, we performed the BODIPY TR cadaverine (BC) displacement assay reported by Wood et al.[22]. The probe binds to the lipid A part of the LPS with moderate affinity and can be displaced by putative LPS-binding molecules. The method was used to probe the affinity of polycationic molecules and LPS binding proteins. First, we determined the affinity of polymyxin B (PMB), a lipopeptide cyclic antibiotic which has a high affinity for LPS. […] Figure 1a,b show the concentration-dependent displacement of LPS/lipid A-bound BC upon addition of B2088. […] To confirm the importance of branching, we determined the BC50 for a linear retrodimer having the amino acid sequence, […] (Fig. 1d). The determined value was 2-fold higher (3.9 ± 0.1 μM) than that of B2088, confirming a weaker affinity of the linear peptide.
The BC displacement assay was used to determine the ability of each peptide to bind to LPS. The florescent probe, BODIPY TR cadaverine (BC) was purchased from Molecular Probes/ Invitrogen (USA). A stock solution containing 1 mg/ml of LPS (E. coli serotype 055:B5) was prepared in dimethyl sulfoxide (DMSO) and another stock solution containing 1 mg/ml of BC dye was prepared in 5 mM HEPES buffer (pH 7.4). The optimum saturation concentration of BC:LPS ratio was standardized following the protocol provided by Wood et al. (22). From the BC stock, 240 μl was mixed with 500 μl from the LPS stock solution in 5 mM HEPES buffer (pH 7.4) to prepare 20 ml of BC:LPS mixture. Two-fold serial dilutions of each peptide in 5 mM HEPES buffer (pH 7.4) was prepared from their 1 mg/ml stock solutions to obtain a final range of 0.02–25.6 μM. The BC:LPS mixture was added to 100 μl of each peptide congener in a 1:1 ratio in each well of a 96-well black Costar™ polystyrene microtitre plate (Corning Incorporated, NY, USA). The maximum fluorescence intensity (Fmax) was determined using a mixture containing 100 μl PMB (50 μg/ml) and 100 μl BC:LPS solution, as PMB is considered the ‘gold standard’ for LPS-sequestering agents. The minimum fluorescence intensity (F0) was measured using 200 μl of BC:LPS mixture to determine the background noise for this experiment. Fluorescence measurements for each peptide (F) were determined using a microplate reader (Model: TECAN Infinite 200, Austria) with excitation and emission wavelengths set at 580 nm and 620 nm respectively. The percentage of BC displacement was then calculated using the formula: […]
The experiments were performed in duplicates and the effective concentration required for 50% displacement of BC dye (ED50) from LPS with respect to PMB was determined by curve fitting using Graphpad Prism (CA, USA). A higher ED50 value for the peptide indicates a lower affinity for LPS.

P. aeruginosa DR4877/07 = assay type: cell-based; settings: for Fractional inhibitory concentration of peptide/PMB, combination with Chloarm / Fractional inhibitory concentration of peptide/PMB, combination with Erythro / Fractional inhibitory concentration of peptide/PMB, combination with Levo / Fractional inhibitory concentration of peptide/PMB, combination with Tobra: first number in parenthesis; for Fractional inhibitory concentration of antibiotic, Chloarm combination / Fractional inhibitory concentration of antibiotic, Erythro combination / Fractional inhibitory concentration of antibiotic, Levo combination / Fractional inhibitory concentration of antibiotic, Tobra combination: second number in parenthesis
Procedure: (§1) The synergism between peptides with conventional antibiotics was evaluated using checkerboard assays. For a comparison polymyxin B (PMB) was also tested against each antibiotic. From their stock solutions, two-fold dilutions of each antibiotic and peptide to 1× MIC were prepared in MHB. 50 μl of each peptide concentration was added into the wells of a 96-well polystyrene plates (SPL Life Sciences Co. Ltd, Korea) in a horizontal orientation and the same volume of each antibiotic concentration were then added in a vertical orientation. Bacterial suspensions were prepared in MHB to yield final cell density of ~10^6 CFU/ml and 100 μl of bacterial suspension was mixed with each peptide-antibiotic combinations. This procedure was repeated for wells containing 200 μl of peptide alone and 200 μl of antibiotic alone in various concentrations. The positive and negative controls contained 200 μl of inoculum and MHB alone respectively. The plates were incubated at 37 °C for 24 hours and the optical density at 600 nm (OD600) was monitored as before. Fractional inhibitory concentration index (FICI) for all antibiotic- peptide combinations was calculated through the summation of (MIC of peptide in the combination/ MIC of peptide alone) and (MIC of antibiotics in combination/MIC of antibiotic alone). The experiments were performed in two independent duplicates and the combinations that gave the lowest FICI values was reported.

P. aeruginosa ATCC 27853 [2] = assay type: cell-based; settings: ATCC 27853; for Fractional inhibitory concentration of peptide/PMB, combination with Genta: first number in parenthesis; for Fractional inhibitory concentration of antibiotic, Genta combination: second number in parenthesis
Procedure: as §1

K. pneumonia 4299 = experiment: microbe, parasite or virus in culture; assay type: cell-based, K. pneumoniae; settings: 24 h
Procedure: (§2) MIC of each peptide was determined using the microdilution method in a 96 well microtitre plates (SPL Life Sciences Co., Ltd, Korea). Two-fold serial dilutions of each peptide in Mueller-Hinton Broth (MHB) was prepared from a 1 mg/ml stock solution of the peptide in the same broth, to obtain a final concentration in the range of 0.0976–50 μg/ml in each well. Bacterial suspensions (P. aeruginosa ATCC 27853, P. aeruginosa 4877, P. aeruginosa 23155, K. pneumoniae ATCC 10031 and K. pneumoniae 4299) were prepared by suspending the overnight cultured bacteria in saline and adjusting the inoculum to ~10^8 colony forming units (CFU) per ml. A further 150-fold dilution was then prepared in MHB to achieve a final cell density of 10^5–10^6 CFU/ml. In each well, 100 μl of inoculum was mixed with the equal volume of peptides at their 2× concentration. Positive and negative controls contained 200 μl of inoculum (without any peptide) and broth alone (no peptide/inoculum) respectively. Another negative control in which MHB containing 200 μl of peptide alone in its highest concentration tested (50 μg/ml) was also included to ensure that the optical density measured in the test wells was not due to turbidity of the peptides in solution. The 96 well polystyrene plates were then incubated at 37 °C for 24 h and the optical density at 600 nm (OD600) was measured every 30 min continuously using a TECAN microplate reader (TECAN Infinite 200, Austria). All the experiments were performed in two independent duplicates and the MIC was determined as the lowest peptide concentration in which no visible growth was observed.

K. pneumoniae ATCC10031 = assay type: cell-based; settings: ATCC10031, 24 h
Procedure: as §2

P. aeruginosa 23155 = assay type: cell-based; settings: 23155, 24 h
Procedure: as §2

P. aeruginosa ATCC 9027 = experiment: Outer membrane permeability assay (NPN); assay type: cell-based; settings: no unit in table; Fig. S5 axis [Peptide], μM; 10 μM NPN, 5 mM HEPES pH 7.4, ex 355/em 405 nm; average of two titrations; read-out: PC50 (peptide concentration for half-maximal NPN intensity, OM permeability)
Procedure: The ability of each peptide to permeabilize the OM of Gram-negative organisms was determined using the hydrophobic fluorescent probe 1-N-phenylnaphthylamine (NPN) as previously reported. P. aeruginosa ATCC 9027 cells from an overnight MHB culture were harvested after centrifuging at 3000 rpm for 10 minutes. The pellet was washed twice, suspended in 5 mM HEPES (N- 2-hydroxyethylpiperazine-N’-2 ethanesulfonic acid) buffer (pH 7.4) and adjusted to an OD600 of 0.200. A suspension containing 600 μl of bacteria cells and 1 μl of a concentrated stock solution of NPN was mixed into a 10 mm stirred quartz cuvette so that the final concentration of the probe remained 10 μM. Aliquots containing 1 μl of each peptide in various concentrations (100, 50, 25, 15, 10, 5, 2.5 and 1 μg/ml) were added upon NPN dye stabilization. The fluorescence intensity was monitored using a Quanta Master spectrophotometer with a constant slit width of 0.5 nm, excitation and emission wavelengths set at 355 nm and 405 nm respectively. The peptide concentration required for half-maximal intensity (PC50) was determined by sigmoidal curve fitting using Graphpad Prism software. The experimental data is average of two independent titration experiments.

P. aeruginosa ATCC 27853 [3] = experiment: microbe, parasite or virus in culture; assay type: cell-based; settings: ATCC 27853, 24 h
Procedure: as §2

SMILES | EC50 [1] [µM] | Fractional inhibitory concentration of peptide/PMB, combination with Chloarm (P. aeruginosa DR4877/07) | Fractional inhibitory concentration of peptide/PMB, combination with Erythro (P. aeruginosa DR4877/07) | Fractional inhibitory concentration of peptide/PMB, combination with Levo (P. aeruginosa DR4877/07) | Fractional inhibitory concentration of peptide/PMB, combination with Tobra (P. aeruginosa DR4877/07) | Fractional inhibitory concentration of antibiotic, Chloarm combination (P. aeruginosa DR4877/07) | Fractional inhibitory concentration of antibiotic, Erythro combination (P. aeruginosa DR4877/07) | Fractional inhibitory concentration of antibiotic, Levo combination (P. aeruginosa DR4877/07) | Fractional inhibitory concentration of antibiotic, Tobra combination (P. aeruginosa DR4877/07) | Fractional inhibitory concentration of peptide/PMB, combination with Genta (P. aeruginosa ATCC 27853 [2]) | Fractional inhibitory concentration of antibiotic, Genta combination (P. aeruginosa ATCC 27853 [2]) | Minimum Inhibitory Concentration against K. pneumonia 4299 (K. pneumonia 4299) [µM] | Minimum Inhibitory Concentration against K. pneumoniae ATCC10031 (K. pneumoniae ATCC10031) [µM] | Minimum Inhibitory Concentration against P. aeruginosa 23155 (P. aeruginosa 23155) [µM] | EC50 (P. aeruginosa ATCC 9027) [µM] | Minimum Inhibitory Concentration against P. aeruginosa ATCC 27853 (P. aeruginosa ATCC 27853 [3]) [µM]
CC[C@H](C)[C@H](NC(=O)[C@H](CCCCN)NC(=O)[C@H](CCCNC(=N)N)NC(=O)CNC(=O)[C@@H](N)CCCNC(=N)N)C(=O)N[C@H](C(=O)N[C@@H](CCCNC(=N)N)C(=O)N[C@@H](CCCNC(=N)N)C(=O)NCCCC[C@H](NC(=O)[C@H](CCCNC(=N)N)NC(=O)[C@H](CCCNC(=N)N)NC(=O)[C@@H](NC(=O)[C@@H](NC(=O)[C@H](CCCCN)NC(=O)[C@H](CCCNC(=N)N)NC(=O)CNC(=O)[C@@H](N)CCCNC(=N)N)[C@@H](C)CC)[C@@H](C)CC)C(=O)N[C@@H](CCCCN)C(=O)O)[C@@H](C)CC (I: H-RGRKIIRRKK-OH / II: H-RGRKIIRR; amide I:9-II:C; N-terminus and C-terminus assumed) | 1.44 ± 0.02 | 0.5 | (0.5,0.5) | 0.5 | 0.5 | 0.25 | (0.5,0.5) | 0.13 | 0.06 | 0.5 | 0.01 | 5.3 | 2.7 | 5.3 | 17 ± 0.2 | 2.7
CC(C)C[C@H](NC(=O)[C@H](CCCCN)NC(=O)[C@H](CCCNC(=N)N)NC(=O)CNC(=O)[C@@H](N)CCCNC(=N)N)C(=O)N[C@@H](CC(C)C)C(=O)N[C@@H](CCCNC(=N)N)C(=O)N[C@@H](CCCNC(=N)N)C(=O)NCCCC[C@H](NC(=O)[C@H](CCCNC(=N)N)NC(=O)[C@H](CCCNC(=N)N)NC(=O)[C@H](CC(C)C)NC(=O)[C@H](CC(C)C)NC(=O)[C@H](CCCCN)NC(=O)[C@H](CCCNC(=N)N)NC(=O)CNC(=O)[C@@H](N)CCCNC(=N)N)C(=O)N[C@@H](CCCCN)C(=O)O (I: H-RGRKLLRRKK-OH / II: H-RGRKLLRR; amide I:9-II:C; N-terminus and C-terminus assumed) | 1.47 ± 0.02 | 0.25 | (0.5,0.5) | 0.5 | (0.25,0.25) | 0.13 | (0.5,0.5) | 0.06 | (0.25,0.25) | (0.25,0.25) | (0.25,0.25) | 5.3 | 5.3 | 2.7 | 17.5 ± 0.4 | 2.7
